From patent US20260285863A1, “COMPOUNDS CAPABLE OF MODULATING GPR65” (Pathios Therapeutics Limited, priority 2023, published 2026)

Target: T1, human recombinant GPR65 (Homo sapiens, UniProt Q8IYL9)
T1 construct: host or cells: 1321N1 human astrocytoma cells (1321N1-hrGPR65)
Test: Human GPR65 cAMP HTRF antagonist assay
Assay type: cell-based
Conditions: 1321N1-hrGPR65 cells, assay pH 7.2, cAMP HTRF; read-out: hGPR65 IC50
Text: The “Human GPR65 cyclic adenosine monophosphate (cAMP) Homogeneous Time Resolved Fluorescence (HTRF) antagonist assay”, or simply “cAMP assay”, as described in the accompanying examples, can be used to measure the potency of GPR65 modulators, which is expressed as the concentration of compound required to reduce the increase in cAMP concentration upon GPR65 activation by 50% (i.e. an IC50).
Human GPR65 Cyclic Adenosine Monophosphate (cAMP) Homogeneous Time Resolved Fluorescence (HTRF) Antagonist Assay Procedure
IC50data was obtained by the following procedure:
1321N1 human astrocytoma cells stably expressing human recombinant GPR65 (1321N1-hrGPR65 cells, EuroscreenFast) were cultured according to the vendor's instructions.
Compounds were tested for their ability to antagonise GPR65, through measuring the concentration of cytoplasmic cAMP following treatment of the cells at a pH of 7.2 to activate GPR65 signalling and addition of the compound to be tested. The extent to which the expected rise in cAMP concentration upon GPR65 activation was suppressed by the added compound is indicative of its potency. The assay was carried out according to EuroscreenFast assay Methodology as follows.
On the day of the assay, test compounds were added to 384-well, low volume, white microtiter plates by acoustic dispensing. KRH buffer (5 mM KCl, 1.25 mM MgSO4, 124 mM NaCl, 25 mM HEPES, 13.3 mM Glucose, 1.25 mM KH2PO4 and 1.45 mM CaCl2) was adjusted to pH 6.5, pH 7.6 and pH 8.4 by adding NaOH. 1321N1-hGPR65 cells were rapidly thawed and diluted in KRH, pH 7.6 prior to centrifugation at 300×g for 5 min and resuspension in assay buffer (KRH, pH 7.6, supplemented with 1 mM 3-isobutyl-1-methylxanthine (IBMX) and 200 μM ethylenediaminetetraacetic acid (EDTA)). Cells were added to assay plates at a density of 2,000 cells per well in a volume of […]. Assay plates were briefly centrifuged at 100×g and then incubated at room temperature for 30 min. Cells were stimulated by the addition of 5 μL KRH, pH 6.5, to achieve an assay pH of 7.2, while control wells received […] KRH, pH 8.4 to achieve an assay pH of 7.9. Assay plates were briefly centrifuged at 100×g and then incubated at room temperature for 30 min.
Accumulation of cAMP was detected by cAMP HTRF kit (Cisbio). d2-labeled cAMP and cryptate-labeled anti-cAMP antibody in Lysis and Detection Buffer (Cisbio) were added to assay plates, and the plates were incubated at room temperature for 1 h. HTRF measurements were performed using a Pherastar FSX instrument. Acceptor and donor emission signals were measured at 665 nm and 620 nm, respectively, and HTRF ratios were calculated as signal665 nm/signal620 nm×104. Data were normalised to high and low control values and fitted with 4-parameter logistic regression to determine hGPR65 IC50 values for the test compounds, which are shown in Table 1.

T1 sequence (Q8IYL9 whole entry): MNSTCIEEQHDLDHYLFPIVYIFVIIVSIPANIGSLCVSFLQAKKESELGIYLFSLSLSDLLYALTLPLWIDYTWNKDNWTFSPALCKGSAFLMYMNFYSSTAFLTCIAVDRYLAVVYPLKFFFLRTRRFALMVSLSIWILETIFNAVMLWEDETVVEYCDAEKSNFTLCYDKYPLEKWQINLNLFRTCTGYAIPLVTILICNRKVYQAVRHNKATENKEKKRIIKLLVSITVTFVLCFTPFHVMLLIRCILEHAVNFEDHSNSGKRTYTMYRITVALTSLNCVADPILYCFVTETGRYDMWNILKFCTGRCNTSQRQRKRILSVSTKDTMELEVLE

Compound | IC50 [nM]
COCCOCCO[C@H]1C[C@@H](Oc2ccc(-c3cc(F)c(NC(=O)N4[C@H]5CC[C@@H]4c4c[nH]c(=O)cc4C5)cc3Cl)cn2)C1 [Compound 15, (6S,9R)-N-(5-chloro-2-fluoro-4-(6-((1s,3S)-3-(2-(2-methoxyethoxy)ethoxy)cyclobutoxy)pyridin-3-yl)phenyl)-3-oxo-3,5,6,7,8,9-hexahydro-2H-6,9-epiminocyclohepta[c]pyridine-10-carboxamide] | < 500
CN(CC(F)(F)F)c1ccc(-c2cc(F)c(NC(=O)N3[C@H]4CC[C@@H]3c3n[nH]c(=O)cc3C4)cc2Cl)cn1 [Compound 3, (6S,9R)-N-(5-chloro-2-fluoro-4-(6-(methyl(2,2,2-trifluoroethyl)amino)pyridin-3-yl)phenyl)-3-oxo-3,5,6,7,8,9-hexahydro-2H-6,9-epiminocyclohepta[c]pyridazine-10-carboxamide] | < 500
O=C(Nc1cc(Cl)c(COc2cccc(F)n2)cc1F)N1[C@H]2CC[C@@H]1c1n[nH]c(=O)cc1C2 [Compound 52, (6S,9R)-N-(5-Chloro-2-fluoro-4-(((6-fluoropyridin-2-yl)oxy)methyl)phenyl)-3-oxo-3,5,6,7,8,9-hexahydro-2H-6,9-epiminocyclohepta[c]pyridazine-10-carboxamide] | < 500
Cn1cc(-c2cc(F)c(NC(=O)N3[C@H]4CC[C@@H]3c3c[nH]c(=O)cc3C4)cc2Cl)ccc1=O [Compound 30, (6S,9R)-N-(5-chloro-2-fluoro-4-(1-methyl-6-oxo-1,6-dihydropyridin-3-yl)phenyl)-3-oxo-3,5,6,7,8,9-hexahydro-2H-6,9-epiminocyclohepta[c]pyridine-10-carboxamide] | 500 to 5000
O=C(Nc1cc(Cl)c(COc2ccc(OC3CCCC3)cn2)cc1F)N1[C@H]2CC[C@@H]1c1c[nH]c(=O)cc1C2 [Compound 58, (6S,9R)-N-(5-chloro-4-(((5-(cyclopentyloxy)pyridin-2-yl)oxy)methyl)-2-fluorophenyl)-3-oxo-3,5,6,7,8,9-hexahydro-2H-6,9-epiminocyclohepta[c]pyridine-10-carboxamide] | < 500
O=C(Nc1cc(Cl)c(Cl)cn1)N1C2CCC1C(F)(F)c1c2ccnc1F (racemic) [Compound 36, (±)-N-(4,5-dichloropyridin-2-yl)-1,9,9-trifluoro-6,7,8,9-tetrahydro-5H-5,8-epiminocyclohepta[c]pyridine-10-carboxamide] | < 500
O=C(Nc1cc(Cl)c(-c2ccc(O[C@@H]3CCN(CC(F)(F)F)C3)nc2)cc1F)N1[C@H]2CC[C@@H]1c1c[nH]c(=O)cc1C2 (single isomer, unassigned) [Compound 77] | < 500
O=C(Nc1cc(Cl)c(-c2ccc(OC[C@@H]3CC3(F)F)nc2)cc1F)N1[C@H]2CC[C@@H]1c1c[nH]c(=O)cc1C2 [Compound 85, (6S,9R)-N-(5-Chloro-4-(6-(((S)-2,2-difluorocyclopropyl)methoxy)pyridin-3-yl)-2-fluorophenyl)-3-oxo-3,5,6,7,8,9-hexahydro-2H-6,9-epiminocyclohepta[c]pyridine-10-carboxamide] | < 500
O=C(Nc1cc(Cl)c(COc2ccc(OCC(F)(F)F)cn2)cc1F)N1[C@H]2CC[C@@H]1c1n[nH]c(=O)cc1C2 [Compound 55, (6S,9R)-N-(5-Chloro-2-fluoro-4-(((5-(2,2,2-trifluoroethoxy)pyridin-2-yl)oxy)methyl)phenyl)-3-oxo-3,5,6,7,8,9-hexahydro-2H-6,9-epiminocyclohepta[c]pyridazine-10-carboxamide] | < 500
O=C(Nc1cc(Cl)c(Cl)cc1F)N1[C@H]2CC[C@@H]1c1cc[n+]([O-])cc1C2 [Compound 66, (5R,8S)-10-((4,5-dichloro-2-fluorophenyl)carbamoyl)-6,7,8,9-tetrahydro-5H-5,8-epiminocyclohepta[c]pyridine 2-oxide] | < 500
Cn1ncc2cc(-c3cc(F)c(NC(=O)N4[C@H]5CC[C@@H]4c4c[nH]c(=O)cc4C5)cc3Cl)ccc21 [Compound 37, (6S,9R)-N-(5-chloro-2-fluoro-4-(1-methyl-1H-indazol-5-yl)phenyl)-3-oxo-3,5,6,7,8,9-hexahydro-2H-6,9-epiminocyclohepta[c]pyridine-10-carboxamide] | < 500
CN(CC(F)(F)F)c1cc(-c2cc(F)c(NC(=O)N3[C@H]4CC[C@@H]3c3c[nH]c(=O)cc3C4)cc2Cl)ccn1 [Compound 43, (6S,9R)-N-(5-chloro-2-fluoro-4-(2-(methyl(2,2,2-trifluoroethyl)amino)pyridin-4-yl)phenyl)-3-oxo-3,5,6,7,8,9-hexahydro-2H-6,9-epiminocyclohepta[c]pyridine-10-carboxamide] | < 500
O=C(Nc1ccc(Cl)cc1F)N1[C@H]2CC[C@@H]1c1ccnc(F)c1C2 [Compound 46, (5R,8S)-N-(4-chloro-2-fluorophenyl)-1-fluoro-6,7,8,9-tetrahydro-5H-5,8-epiminocyclohepta[c]pyridine-10-carboxamide] | < 500
O=C(Nc1cc(Cl)c(-c2ccc(OCC3CCC3)nc2)cc1F)N1[C@H]2CC[C@@H]1c1n[nH]c(=O)cc1C2 [Compound 20, (6S,9R)-N-(5-chloro-4-(6-(cyclobutylmethoxy)pyridin-3-yl)-2-fluorophenyl)-3-oxo-3,5,6,7,8,9-hexahydro-2H-6,9-epiminocyclohepta[c]pyridazine-10-carboxamide] | < 500
O=C(Nc1cc(Cl)c(NCc2cccc(OCC(F)(F)F)n2)cc1F)N1[C@H]2CC[C@@H]1c1n[nH]c(=O)cc1C2 [Compound 64, (6S,9R)-N-(5-chloro-2-fluoro-4-(((6-(2,2,2-trifluoroethoxy)pyridin-2-yl)methyl)amino)phenyl)-3-oxo-3,5,6,7,8,9-hexahydro-2H-6,9-epiminocyclohepta[c]pyridazine-10-carboxamide] | < 500
O=C(Nc1cc(Cl)c(-c2ccc(OCC3CCOC3)nc2)cc1F)N1[C@H]2CC[C@@H]1c1c[nH]c(=O)cc1C2 (stereo partly drawn) [Compound 16, (6S,9R)-N-(5-chloro-2-fluoro-4-(6-((tetrahydrofuran-3-yl)methoxy)pyridin-3-yl)phenyl)-3-oxo-3,5,6,7,8,9-hexahydro-2H-6,9-epiminocyclohepta[c]pyridine-10-carboxamide] | < 500
O=C(Nc1cc(Cl)c(-c2ccc(OC[C@H]3CC3(F)F)nc2)cc1F)N1[C@H]2CC[C@@H]1c1c[nH]c(=O)cc1C2 [Compound 82, (6S,9R)-N-(5-Chloro-4-(6-(((R)-2,2-difluorocyclopropyl)methoxy)pyridin-3-yl)-2-fluorophenyl)-3-oxo-3,5,6,7,8,9-hexahydro-2H-6,9-epiminocyclohepta[c]pyridine-10-carboxamide] | < 500
O=C1c2ccc(NC(=O)N3[C@H]4CC[C@@H]3c3n[nH]c(=O)cc3C4)cc2C(=O)N1c1ccc(OCC(F)(F)F)nc1 [Compound 91, (6S,9R)-N-(1,3-Dioxo-2-(6-(2,2,2-trifluoroethoxy)pyridin-3-yl)isoindolin-5-yl)-3-oxo-3,5,6,7,8,9-hexahydro-2H-6,9-epiminocyclohepta[c]pyridazine-10-carboxamide] | 500 to 5000
O=C(Nc1cc(Cl)c(-c2ccc(OC[C@@H]3CCOC3)nc2)cc1F)N1[C@H]2CC[C@@H]1c1n[nH]c(=O)cc1C2 [Compound 79, (6S,9R)-N-(5-Chloro-2-fluoro-4-(6-(((R)-tetrahydrofuran-3-yl)methoxy)pyridin-3-yl)phenyl)-3-oxo-3,5,6,7,8,9-hexahydro-2H-6,9-epiminocyclohepta[c]pyridazine-10-carboxamide] | < 500
O=C(Nc1cc(Cl)c(Cl)cc1F)N1[C@H]2CC[C@@H]1c1ccncc1C2 [Compound 49, (5R,8S)-N-(4,5-dichloro-2-fluorophenyl)-6,7,8,9-tetrahydro-5H-5,8-epiminocyclohepta[c]pyridine-10-carboxamide] | < 500
Cc1cc(-c2cc(F)c(NC(=O)N3[C@H]4CC[C@@H]3c3c[nH]c(=O)cc3C4)cc2Cl)cc2nsnc12 [Compound 24, (6S,9R)-N-(5-chloro-2-fluoro-4-(7-methylbenzo[c][1,2,5]thiadiazol-5-yl)phenyl)-3-oxo-3,5,6,7,8,9-hexahydro-2H-6,9-epiminocyclohepta[c]pyridine-10-carboxamide] | < 500
